Test results taken from ChEMBL document CHEMBL3046513, “Synthesis, characterization, and biological evaluation of some N-aryl hydrazones and their 2,3-disubstituted-4-thiazolidinone derivatives” (Med Chem Res, 2013).
In brackets after ≈: the same amount, converted by molar mass. Activity calls are given as the source filed them. No cut-off for these calls is given here.

Tests used:
Mus musculus [1] = assay: Acute toxicity in Mus musculus Swiss albino (mouse) assessed as mortality at 500 to 2500 mg/kg, po after 4 to 24 hr; format: organism-based; parameters: route oral; settings: in vivo
Staphylococcus aureus = assay: Antibacterial activity against Staphylococcus aureus ATCC 25923 assessed as growth inhibition by serial plate dilution method; format: functional
Escherichia coli = assay: Antibacterial activity against Escherichia coli ATCC 25922 assessed as growth inhibition by serial plate dilution method; format: functional
Candida albicans [2] = assay: Antifungal activity against Candida albicans assessed as growth inhibition by serial plate dilution method; format: functional
Pseudomonas aeruginosa = assay: Antibacterial activity against Pseudomonas aeruginosa ATCC 27853 assessed as growth inhibition by serial plate dilution method; format: functional
Candida albicans [3] = assay: Ratio of fluconazole MIC to compound MIC for Candida albicans; format: functional
Bacillus cereus = assay: Antibacterial activity against Bacillus cereus assessed as growth inhibition by serial plate dilution method; format: functional
Mus musculus [4] = assay: Acute toxicity in Mus musculus Swiss albino (mouse) assessed as behavioral changes at 500 to 2500 mg/kg, po after 4 to 24 hr; format: organism-based; parameters: route oral; settings: in vivo
Rattus norvegicus [5] = assay: Anti-inflammatory activity in Rattus norvegicus (rat) assessed as decrease in carrageenan-induced paw edema at 100 mg/kg, po administered 30 min prior to carrageenan challenge measured after 180 min (reference value: 2.275 +/- 0.1181 mm); format: functional
Mus musculus [6] = assay: Analgesic activity in Mus musculus […] albino (mouse) assessed as time taken to tail withdrawl at 100 mg/kg, po administered through intragastric tube after 180 min by tail flick test (reference value: 1.363 +/- 0.1297 secs); format: functional
Rattus norvegicus [7] = assay: Anti-inflammatory activity in Rattus norvegicus (rat) assessed as decrease in carrageenan-induced paw edema at 100 mg/kg, po administered 30 min prior to carrageenan challenge measured after 120 min (reference value: 2.375 +/- 0.1436 mm); format: functional
[8] = tested on: Radical scavenging activity; assay: Antioxidant activity assessed as inhibition of DPPH radical generation at 200 to 800 ug/mL after 20 min by spectrophotometric analysis; format: functional
Mus musculus [9] = assay: Analgesic activity in Mus musculus […] albino (mouse) assessed as time taken to tail withdrawl at 100 mg/kg, po administered through intragastric tube after 60 min by tail flick test (reference value: 1.363 +/- 0.1297 secs); format: functional
Rattus norvegicus [10] = assay: Anti-inflammatory activity in Rattus norvegicus (rat) assessed as decrease in carrageenan-induced paw edema at 100 mg/kg, po administered 30 min prior to carrageenan challenge measured after 60 min (reference value: 2.175 +/- 0.1797 mm); format: functional
Mus musculus [11] = assay: Analgesic activity in Mus musculus […] albino (mouse) assessed as time taken to tail withdrawl at 100 mg/kg, po administered through intragastric tube after 120 min by tail flick test (reference value: 1.363 +/- 0.1297 secs); format: functional
[12] = tested on: Radical scavenging activity; assay: Antioxidant activity assessed as inhibition of DPPH radical generation at 200 ug/mL after 20 min by spectrophotometric analysis relative to control; format: functional
[13] = tested on: Radical scavenging activity; assay: Antioxidant activity assessed as inhibition of DPPH radical generation at 400 ug/mL after 20 min by spectrophotometric analysis relative to control; format: functional
[14] = tested on: Radical scavenging activity; assay: Antioxidant activity assessed as inhibition of DPPH radical generation at 800 ug/mL after 20 min by spectrophotometric analysis relative to control; format: functional

Row | Structure (SMILES) | MIC (Staphylococcus aureus) | MIC (Escherichia coli) | MIC (Candida albicans [2]) | MIC (Pseudomonas aeruginosa) | MIC (Bacillus cereus) | Activity (Mus musculus [1]) | Ratio (Candida albicans [3]) | Activity (Mus musculus [4]) | Activity (Rattus norvegicus [5]) | Time (Mus musculus [6]) | Activity (Rattus norvegicus [7]) | inhibition [8] | Time (Mus musculus [9]) | Activity (Rattus norvegicus [10]) | Time (Mus musculus [11]) | inhibition [12] | inhibition [13] | inhibition [14]
1 | COc1ccc(Br)c(C(=O)N/N=C\c2ccccc2)c1 | 12.5 µg/mL (≈ 37.5 µM) | 12.5 µg/mL (≈ 37.5 µM) | 1.56 µg/mL (≈ 4.69 µM) | 12.5 µg/mL (≈ 37.5 µM) | 12.5 µg/mL (≈ 37.5 µM) | Non-toxic | 5 | Non-toxic |  |  |  |  |  |  |  |  |  | 
2 | COc1ccc(Br)c(C(=O)NN2C(=O)CSC2c2ccc(O)cc2)c1 (configuration not stated) | 12.5 µg/mL (≈ 29.5 µM) | 6.25 µg/mL (≈ 14.8 µM) | 6.25 µg/mL (≈ 14.8 µM) | 6.25 µg/mL (≈ 14.8 µM) | 12.5 µg/mL (≈ 29.5 µM) |  |  |  | 2.048 mm | 2.532 s | 1.899 mm |  | 2.675 s | 1.89 mm | 2.775 s | 57.8% | 58% | 58.3%
3 | COc1ccc(Br)c(C(=O)NN2C(=O)CSC2c2ccc(-c3ccccc3)cc2)c1 (configuration not stated) | 12.5 µg/mL (≈ 25.9 µM) | 6.25 µg/mL (≈ 12.9 µM) | 6.25 µg/mL (≈ 12.9 µM) | 6.25 µg/mL (≈ 12.9 µM) | 6.25 µg/mL (≈ 12.9 µM) |  |  |  | 2.075 mm | 3.113 s | 1.875 mm |  | 2.988 s | 1.45 mm | 3.313 s | 15.3% | 39.9% | 62.5%
4 | COc1ccc(Br)c(C(=O)NN2C(=O)CSC2c2cccc(Cl)c2)c1 (configuration not stated) | 12.5 µg/mL (≈ 28.3 µM) | 12.5 µg/mL (≈ 28.3 µM) | 1.56 µg/mL (≈ 3.54 µM) | 6.25 µg/mL (≈ 14.1 µM) | 6.25 µg/mL (≈ 14.1 µM) | Non-toxic | 5 | Non-toxic | 1.6 mm | 2.438 s | 1.65 mm |  | 2.825 s | 1.575 mm | 2.8 s | 57.6% | 58.5% | 59.5%
5 | COc1ccc(C2SCC(=O)N2NC(=O)c2cc(OC)ccc2Br)c(OC)c1 (configuration not stated) | 12.5 µg/mL (≈ 26.7 µM) | 12.5 µg/mL (≈ 26.7 µM) | 3.12 µg/mL (≈ 6.69 µM) | 6.25 µg/mL (≈ 13.4 µM) | 6.25 µg/mL (≈ 13.4 µM) |  |  |  | 1.9 mm | 2.388 s | 2.15 mm |  | 3.175 s | 2.125 mm | 3.075 s | 15.9% | 33.2% | 71%
6 | COc1ccc(Br)c(C(=O)NN2C(=O)CSC2c2ccc(F)cc2)c1 (configuration not stated) | 12.5 µg/mL (≈ 29.4 µM) | 6.25 µg/mL (≈ 14.7 µM) | 6.25 µg/mL (≈ 14.7 µM) | 12.5 µg/mL (≈ 29.4 µM) | 6.25 µg/mL (≈ 14.7 µM) |  |  |  | 2.2 mm | 3.241 s | 2.05 mm |  | 2.923 s | 2 mm | 3.421 s | 37.8% | 51% | 57.1%

Continued by falling MIC (Staphylococcus aureus), values first:

Row | MIC (Staphylococcus aureus) | MIC (Escherichia coli) | MIC (Candida albicans [2]) | MIC (Pseudomonas aeruginosa) | MIC (Bacillus cereus) | Structure (SMILES) | Activity (Mus musculus [1]) | Ratio (Candida albicans [3]) | Activity (Mus musculus [4]) | Activity (Rattus norvegicus [5]) | Time (Mus musculus [6]) | Activity (Rattus norvegicus [7]) | inhibition [8] | Time (Mus musculus [9]) | Activity (Rattus norvegicus [10]) | Time (Mus musculus [11]) | inhibition [12] | inhibition [13] | inhibition [14]
7 | 12.5 µg/mL (≈ 25.6 µM) | 6.25 µg/mL (≈ 12.8 µM) | 6.25 µg/mL (≈ 12.8 µM) | 6.25 µg/mL (≈ 12.8 µM) | 12.5 µg/mL (≈ 25.6 µM) | COc1ccc(Br)c(C(=O)NN2C(=O)CSC2c2cccc3cc(OC)ccc23)c1 (configuration not stated) |  |  |  | 1.98 mm | 2.53 s | 1.89 mm |  | 1.954 s | 1.515 mm | 2.214 s | 38.3% | 52.4% | 58.3%
8 | 6.25 µg/mL (≈ 14.8 µM) | 12.5 µg/mL (≈ 29.5 µM) | 3.12 µg/mL (≈ 7.38 µM) | 6.25 µg/mL (≈ 14.8 µM) | 12.5 µg/mL (≈ 29.5 µM) | COc1ccc(Br)c(C(=O)NN2C(=O)CSC2c2ccccc2O)c1 (configuration not stated) |  |  |  | 2.081 mm | 2.235 s | 1.98 mm | inactive | 3.546 s | 1.88 mm | 3.623 s |  |  | 
9 | 6.25 µg/mL (≈ 14.8 µM) | 12.5 µg/mL (≈ 29.7 µM) | 6.25 µg/mL (≈ 14.8 µM) | 12.5 µg/mL (≈ 29.7 µM) | 12.5 µg/mL (≈ 29.7 µM) | COc1ccc(Br)c(C(=O)NN2C(=O)CSC2c2ccc(C)cc2)c1 (configuration not stated) |  |  |  | 1.95 mm | 2.225 s | 1.9 mm | inactive | 2.038 s | 1.525 mm | 2.088 s |  |  | 
10 | 6.25 µg/mL (≈ 14.3 µM) | 12.5 µg/mL (≈ 28.6 µM) | 6.25 µg/mL (≈ 14.3 µM) | 6.25 µg/mL (≈ 14.3 µM) | 6.25 µg/mL (≈ 14.3 µM) | COc1ccc(Br)c(C(=O)NN2C(=O)CSC2c2ccccc2OC)c1 (configuration not stated) |  |  |  | 2.075 mm | 2.238 s | 1.95 mm | inactive | 2.175 s | 1.825 mm | 2.075 s |  |  | 
11 | 6.25 µg/mL (≈ 15.3 µM) | 6.25 µg/mL (≈ 15.3 µM) | 3.12 µg/mL (≈ 7.65 µM) | 6.25 µg/mL (≈ 15.3 µM) | 6.25 µg/mL (≈ 15.3 µM) | COc1ccc(Br)c(C(=O)NN2C(=O)CSC2c2cccnc2)c1 (configuration not stated) |  |  |  | 1.9 mm | 2.938 s | 1.75 mm |  | 3.25 s | 1.45 mm | 3.6 s | 21.6% | 23.5% | 25.1%
12 | 6.25 µg/mL (≈ 13.8 µM) | 12.5 µg/mL (≈ 27.6 µM) | 12.5 µg/mL (≈ 27.6 µM) | 6.25 µg/mL (≈ 13.8 µM) | 6.25 µg/mL (≈ 13.8 µM) | COc1ccc(Br)c(C(=O)NN2C(=O)CSC2c2ccc(O)c(OC)c2)c1 (configuration not stated) |  |  |  | 1.78 mm | 2.841 s | 1.77 mm | inactive | 3.468 s | 1.528 mm | 3.334 s |  |  | 
